According to patent US20230139826A1 (NONO INC., priority 2020, published 2023):
“Also recorded” adds a separate entry of the source. Read-outs that look alike come from different tables or passages of the source. Non-standard residues stand in square brackets, D forms with d. Residues, ends and D or L forms follow the SMILES beside them.

Key:
PDZ2 domain of PSD-95 = PDZ2 domain of PSD-95 (Homo sapiens, UniProt P78352); assay: Direct ELISA of biotinylated peptides to PSD-95 PDZ2; type: binding
Method: ELISA plates were coated with 1 ug/ml PSD95PDZ2 in 50 mM bicarbonate buffer overnight at 4 C. The plate was blocked in 2%BSA in PBST (0.05%) for 2 h at room temperature. It was then incubated with biotinylated ligand (nerinetide, D-tat-L2B9c or D-Tat-L-AA) at the indicated concentrations (FIG. 4A) and incubated overnight at 4 C. After washing with PBS-T, the plate was incubated for 30 min with (1:3000) SA-HRP, washed again, and incubated with TMB solution for 10 min. The reaction was stopped with 100 ul H2504. Absorbance was determined at 450 nm with the synergy H1 reader.

[1] = In-vivo pharmacokinetic analysis in rats; conditions: rat, intravenous bolus 7.6 mg/kg
Method: Since the effect of nerinetide in the ESCAPE-NA1 trial was negated by alteplase, we next evaluated the effects of alteplase on pharmacokinetics (PK) of nerinetide in rats. Alteplase was administered at 0.9 mg/kg (human dose) and at 5.4 mg/kg (6 times the human dose) in an infusion that simulated the clinical protocol (10% bolus followed by a 60 min infusion of the remainder). Nerinetide was administered as an intravenous bolus at the start of the alteplase infusion at 7.6 mg/kg.
The goal of these study was to evaluate nerinetide PK parameter changes when in the presence of circulating rt-PA and plasmin. Male naïve rats received an intravenous administration of either nerinetide alone, nerinetide plus rt-PA (0.9 mg/kg) or nerinetide plus rt-PA (5.4 mg/kg). Sample collection was performed pre-dose and 0 min, 5 min, 10 min, 20 min, 50 min post-dose. At each time point, approximately 300 uL of blood was sampled from each animal using a fresh syringe. Blood samples were collected in previously prepared Eppendorf tubes [30 ul of EDTA 2.5%] and centrifuged for 20 minutes to separate plasma and cell components.
Plasma samples were stored at −80° C. until analyzed.
Changes in peptide concentration were analyzed using a two-way repeated measures ANOVA, followed by the Sidak correction for multiple comparisons. The pharmacokinetic (PK) parameters of peak plasma concentration (Cmax) and the area under the plasma concentration-time curve from 0 to last measured concentration (AUC) were obtained with PKsolver Software (USA) using a non-compartmental analysis and employing a linear interpolation. For stroke studies, differences between groups were tested using a One-way ANOVA with a Tukey's correction for multiple comparisons. […] Values for animals experiencing premature death due to any reason including subarachnoid hemorrhage or hemorrhagic transformation were imputed to reflect the worst neurological score and the maximum stroke volume achieved across all animals.

plasmin = plasmin (Homo sapiens, UniProt P00747)
Method: (A) LC/MS spectrum of nerinetide after incubation with plasmin in PBS. 10 uL aliquots of nerinetide (18 mg/mL) and plasmin (1 mg/mL) were incubated in 500 uL tubes of phosphate-buffered saline at 37 C for 5 min and the reaction stopped by cooling to −80 C until tested. […] (B, C) In-vitro effect of rt-PA on nerinetide content in rat (B) and human (C) plasma. Nerinetide was spiked into the plasma samples at t=0 at a concentration of 65 ug/ml, whereas alteplase (rt-PA) was administered as a 60 min infusion at the indicated concentration (D, E) In-vivo effect of the simultaneous administration of nerinetide and rt-PA on Cmax (D) and AUC (E) in the rat. The nerinetide bolus and alteplase (60 min infusion) were started simultaneously through two separate intravenous lines. Symbols represent mean±SD. […] […] (SEQ ID NO:3) (Full-length NA-1, undigested), […] […] (SEQ ID NO:8), […] […] (SEQ ID NO:10).
Direct ELISA of the indicated biotinylated peptides to the PDZ2 domain of PSD-95. […] Symbols indicate the mean±SD of triplicate experiments. […] (B). […] E,F. Time course of nerinetide or D-TAT-L-2B9c content in rat plasma (E) and human plasma (F) during a challenge with tenecteplase (TNK; 37.5 ug/ml or 6.25 ug/ml, respectively). […] (repeated measures two-way ANOVA with a post hoc Sidak's multiple comparisons test, *P<0.01). Symbols are means±SD. […]

[2] = test system: embolic middle cerebral artery occlusion (eMCAO); assay: Rat embolic middle cerebral artery occlusion model with alteplase reperfusion; type: in vivo, Sprague-Dawley rats
Method: To test this, male Sprague-Dawley rats (10-12 weeks old; 270-310 g; Charles River, Montreal, QC, Canada) were subjected to embolic middle cerebral artery occlusion (eMCAO), produced by the introduction of an autologous blood thrombus into the middle cerebral artery. Reperfusion was achieved by treatment with intravenous alteplase at a total dose of 5.4 mg/kg beginning at 90 minutes after ischemia onset. Alteplase was administered using the human injection protocol in which 10% of the total dose is given as a bolus, with the remainder 90% of the dose being given over a 60-minute infusion. […] This dose was chosen because in pilot studies, higher doses of alteplase (10× human dose) produced unacceptable mortality rates due to hemorrhagic conversions of strokes. Nerinetide was administered either 30 minutes prior to, or concurrently with, the start of the alteplase administration (FIG. 5A) at a dose of 7.6 mg/kg. […] Infarct volumes, hemispheric swelling and neurological scores were evaluated at 24 hours.
Male Sprague-Dawley rats were subjected to eMCAO as already described. Nerinetide (7.6 mg/kg) or D-Tat-L-2B9c (7.6 mg/kg) were given as bolus injections at 60 minutes. Alteplase (5.4 mg/kg over 60 min) was also started at 60 min after eMCAO, concurrently with the active agent that inhibits PSD-95. Neurological scoring, infarct volume, and hemispheric swelling were assessed at 24 hours (FIG. 8A).
The studies were designed to have 80% power to detect a 40% absolute difference between control and treatment groups at p=0.05. Animal randomization, drug allocation and treatment drug preparation were performed by a research associate not directly involved with surgical or outcome assessment. Nerinetide and D-Tat-L-2B9c were freshly prepared at a concentration of 7.6 mg/mL in 500 uL aliquots. Alteplase was prepared from lyophilized drug and, like matching placebo, stored in identical glass tubes. Drugs were kept at 4° C. until 10 minutes prior to use. The surgeon and the investigators responsible for the surgery, stroke volume measurement, behavioural assessment and statistical analysis were blinded to treatment allocation.

[3] = test system: transient middle cerebral artery occlusion (tMCAO); assay: Rat transient middle cerebral artery occlusion model; conditions: rat tMCAO, comparison of the two peptides
Method: Nerinetide and lodoxamide was administered to rats intravenously as a bolus injection, 60 minutes after tMCAo. […] Bars in A and represent mean±SD, with all individual data points plotted. Asterisks in A indicate P<0.01 when compared to the vehicle group (one-way ANOVA post hoc Tukey's correction for multiple comparisons test) N=12-14 animals/group. […] Significant differences are indicated with an asterisk when compared to the vehicle group (Kruskal-Wallis analysis of variance on ranks with a post-hoc Dunn's correction for multiple comparisons test, *P<0.01). Vehicle: PBS alone. Scrambled: ADA peptide incapable of binding PSD-95.
All animals subjected to surgery had their physiological parameters measured prior to MCA occlusion. PE-50 polyethylene tubing was inserted into the right femoral artery for invasive monitoring of mean arterial blood pressure and for obtaining blood samples to measure blood gases (pH, PaO2, and PaCO2), electrolytes (Na^+, K^+, iCa) and plasma glucose at baseline [Blood gas cartridge CG8+, VetScan i-STAT 1 Analyzer].
Infarct volumes and hemispheric swelling were evaluated at 24 hours post-stroke from standard brain slices stained with 2% 2,3,5-triphenyltetrazolium chloride (Sigma Aldrich, St. Louis, Md., USA)(7). Neurologic scoring was conducted at 24 hours after stroke onset using forelimb-placing tests comprising of frontal visual placing, sideways visual placing, frontal tactile placing, sideways tactile placing, and vertical tactile placing (scores range from 0-2 in each component for a maximum of 12 indicating maximum impairment.

plasmin (1 mg/mL) = assay: plasmin in PBS (phosphate-buffered saline); conditions: 37 C, up to 5 min
[4] = rat plasma in the absence of alteplase; conditions: Rat Sprague Dawley, 37° C., up to 45 min
[5] = test system: rt-PA (alteplase) (135 ug/ml); assay: PBS during a challenge with rt-PA (135 ug/ml); conditions: 37° C.
[6] = human plasma in the absence of alteplase; conditions: 37° C., up to 45 min
[7] = cited from earlier work

PDZ2 domain of PSD-95, sequence (P78352 160-246 limits assumed): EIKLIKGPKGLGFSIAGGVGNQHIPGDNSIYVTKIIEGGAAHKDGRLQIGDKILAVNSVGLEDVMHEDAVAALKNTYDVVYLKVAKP

CC[C@H](C)[C@H](NC(=O)[C@H](CO)NC(=O)[C@H](CO)NC(=O)[C@H](CC(C)C)NC(=O)[C@H](CCCCN)NC(=O)[C@@H](CCCNC(=N)N)NC(=O)[C@@H](CCCNC(=N)N)NC(=O)[C@@H](CCCNC(=N)N)NC(=O)[C@@H](CCC(N)=O)NC(=O)[C@@H](CCCNC(=N)N)NC(=O)[C@@H](CCCNC(=N)N)NC(=O)[C@@H](CCCCN)NC(=O)[C@@H](CCCCN)NC(=O)[C@@H](CCCNC(=N)N)NC(=O)CNC(=O)[C@H](N)Cc1ccc(O)cc1)C(=O)N[C@@H](CCC(=O)O)C(=O)N[C@@H](CO)C(=O)N[C@@H](CC(=O)O)C(=O)N[C@H](C(=O)O)C(C)C [D-Tat-L-2B9c, ygrkkrrqrrrKLSSIESDV SEQ ID NO:89] (H-[dY]G[dR][dK][dK][dR][dR][dQ][dR][dR][dR]KLSSIESDV-OH; C-terminus assumed)
EC50 (PDZ2 domain of PSD-95): 151 nM
binding to PDZ2 domain of PSD95 in ELISA (PDZ2 domain of PSD-95): substantially similar binding as nerinetide
pharmacokinetic profile compared with nerinetide [1]: higher cmax and AUC
stability alone in phosphate buffered saline (plasmin): stable
infarct volumes, hemispheric swelling and neurological scores ([2]; 7.6 mg/kg at 60 minutes after eMCAO, 24 hours): beneficial effect of D-Tat-L-2B9c was evident
effect on infarction volume in the absence of alteplase ([2]; 7.6 mg/kg bolus at 60 minutes after eMCAO): as effective as nerinetide alone
effect on infarction volume when given concurrently with alteplase ([2]; peptide 7.6 mg/kg and alteplase 5.4 mg/kg both at 60 min after eMCAO): this effect persisted
reducing infarction volume, hemispheric swelling and improving neurological scores [3]: equally effective

YGRKKRRQRRRKLSSIESDV
cleaved bond (plasmin (1 mg/mL)): K5-R, 5 min; also recorded: R6-R, 5 min; also recorded: R7-Q, 5 min; also recorded: R9-R, 5 min; also recorded: R11-K, 5 min; also recorded: K12-L, 5 min
fragment found (plasmin (1 mg/mL)): RKLSSIESDV (SEQ ID NO:8), 5 min
not cleaved [4]: stable
not cleaved [5]: not affected by co-incubation with alteplase
not cleaved [6]: stable

alteplase: a recombinant form of tPA; thrombolytic agent [reference compound]
reduction of infarction volume ([2]; alteplase alone 5.4 mg/kg given at 60 min after eMCAO): 26%
reduction of infarction volume ([2]; alteplase alone 5.4 mg/kg given at 90 minutes after eMCAO): 18%
half-life in human plasma ([7]; in vivo): about five

B1: Plasmin: serine protease generated from circulating plasminogen by tissue-plasminogen activators (protein, UniProt P00747 20-580; P00747 581-810, looked up)
Plasmin heavy chain A: EPLDDYVNTQGASLFSVTKKQLGAGSIEECAAKCEEDEEFTCRAFQYHSKEQQCVIMAENRKSSIIIRMRDVVLFEKKVYLSECKTGNGKNYRGTMSKTKNGITCQKWSSTSPHRPRFSPATHPSEGLEENYCRNPDNDPQGPWCYTTDPEKRYDYCDILECEEECMHCSGENYDGKISKTMSGLECQAWDSQSPHAHGYIPSKFPNKNLKKNYCRNPDRELRPWCFTTDPNKRWELCDIPRCTTPPPSSGPTYQCLKGTGENYRGNVAVTVSGHTCQHWSAQTPHTHNRTPENFPCKNLDENYCRNPDGKRAPWCHTTNSQVRWEYCKIPSCDSSPVSTEQLAPTAPPELTPVVQDCYHGDGQSYRGTSSTTTTGKKCQSWSSMTPHRHQKTPENYPNAGLTMNYCRNPDADKGPWCFTTDPSVRWEYCNLKKCSGTEASVVAPPPVVLLPDVETPSEEDCMFGNGKGYRGKRATTVTGTPCQDWAAQEPHRHSIFTPETNPRAGLEKNYCRNPDGDVGGPWCYTTNPRKLYDYCDVPQCAAPSFDCGKPQVEPKKCPGR
Plasmin light chain B: VVGGCVAHPHSWPWQVSLRTRFGMHFCGGTLISPEWVLTAAHCLEKSPRPSSYKVILGAHQEVNLEPHVQEIEVSRLFLEPTRKDIALLKLSSPAVITDKVIPACLPSPNYVVADRTECFITGWGETQGTFGAGLLKEAQLPVIENKVCNRYEFLNGRVQSTELCAGHLAGGTDSCQGDSGGPLVCFEKDKYILQGVTSWGLGCARPNKPGVYVRVSRFVTWIEGVMRNN
modifications: plasmin
half-life in human plasma ([7]; reported): 4 to 8 h
